Reference: patent publication US11622937B2, “Polyphenolic polymer to make water-insoluble molecules become water-soluble” (priority 2015, dated 2023)
Where a name gives a salt, the structure may show the parent alone.

Columns and labels:
[1] = estimated; cited from earlier work
[2] = cited from earlier work
[3] = Solubility with Polyphenolic Polymer in water; details: molecule formulated with Polyphenolic Polymer
[4] = Comparative study of solubility profile in water (spectrophotometric absorption at 262); type: physicochemical; details: 200 ml DI water, filtered 0.45 micron
Description: A comparative study was conducted to observe the solubility profile in water. Materials: Ibuprofen was purchased from Spectrum (USP grade) USA. […] Spectrophotometer used in the study is from Beckman Coulter DU800. Sample preparation; 200 mg of Ibuprofen was weighed and ground in a […] -mortar and dissolved in 200 ml of DI water.

SMILES | solubility in water [1] | Reported Solubility in water [2] | Solubility with Polyphenolic Polymer in water (more than 99%) [3] | solubility [4]
C=C(c1ccc(C(=O)O)cc1)c1cc2c(cc1C)C(C)(C)CCC2(C)C [Bexarotene, Free Acid (4), Bexarotene] | 10 to 50 µM | Insoluble |  | 
CCCC1O[C@@H]2C[C@H]3[C@@H]4CCC5=CC(=O)C=C[C@]5(C)[C@H]4[C@@H](O)C[C@]3(C)[C@]2(C(=O)CO)O1 (some centres unmarked) [Budesonide, 98%, Budesonide] |  | Insoluble | Water Soluble | 
CC12CCC(CC1=O)C2(C)C (centres unmarked) [Camphor] |  | Insoluble | Water Soluble | 
CC[C@@]1(O)C(=O)OCc2c1cc1n(c2=O)Cc2cc3ccccc3nc2-1 [Camptothecin] |  | Insoluble | Water Soluble | 
CCCCCOC(=O)Nc1nc(=O)n([C@@H]2O[C@H](C)[C@@H](O)[C@H]2O)cc1F [Capecitabine] |  | Insoluble | Water Soluble | 
NC(=O)N1c2ccccc2C=Cc2ccccc21 [Carbamazepine] |  | Insoluble | Water Soluble | 
Cc1ccc(-c2cc(C(F)(F)F)nn2-c2ccc(S(N)(=O)=O)cc2)cc1 [Celecoxib] |  | Insoluble | Water Soluble | 
O=C1CCc2cc(OCCCCc3nnnn3C3CCCCC3)ccc2N1 [Cilostazol] |  | Insoluble | Water Soluble | 
CC[C@H]1OC(=O)[C@H](C)[C@@H](O[C@H]2C[C@@](C)(OC)[C@@H](O)[C@H](C)O2)[C@H](C)[C@@H](O[C@@H]2O[C@H](C)C[C@H](N(C)C)[C@H]2O)[C@](C)(OC)C[C@@H](C)C(=O)[C@H](C)[C@@H](O)[C@]1(C)O [Clarithromycin] |  | Insoluble | Water Soluble | 
COC1=C(OC)C(=O)C(C/C=C(\C)CC/C=C(\C)CC/C=C(\C)CC/C=C(\C)CC/C=C(\C)CC/C=C(\C)CC/C=C(\C)CC/C=C(\C)CC/C=C(\C)CCC=C(C)C)=C(C)C1=O [CoQ10] |  | Insoluble | Water Soluble | 
C[C@@H]1C[C@H]2[C@@H]3CCC4=CC(=O)C=C[C@]4(C)[C@@]3(F)[C@@H](O)C[C@]2(C)[C@@]1(O)C(=O)CO [Dexamethasone] |  | Insoluble | Water Soluble | 
CN1C[C@H](C(=O)N[C@]2(C)O[C@@]3(O)[C@@H]4CCCN4C(=O)[C@H](Cc4ccccc4)N3C2=O)C[C@@H]2c3cccc4[nH]cc(c34)C[C@H]21 [Dihydroergotamine Mesylate] |  | Insoluble | Water Soluble | 
CC(=O)O[C@@]12CO[C@@H]1C[C@H](O)[C@@]1(C)C(=O)[C@H](O)C3=C(C)[C@@H](OC(=O)[C@H](O)[C@@H](NC(=O)OC(C)(C)C)c4ccccc4)C[C@@](O)([C@@H](OC(=O)c4ccccc4)[C@H]21)C3(C)C [Docetaxel] |  | Insoluble | Water Soluble | 
COc1cccc2c1C(=O)c1c(O)c3c(c(O)c1C2=O)C[C@@](O)(C(=O)CO)C[C@@H]3O[C@H]1C[C@H](N)[C@H](O)[C@H](C)O1 [Doxorubicin] |  | Insoluble | Water Soluble | 
C#Cc1cccc(Nc2ncnc3cc(OCCOC)c(OCCOC)cc23)c1 [Erlotinib Monohydrochloride] |  | Insoluble | Water Soluble | 
CCC(=O)O[C@]1(C(=O)SCF)[C@H](C)C[C@H]2[C@@H]3C[C@H](F)C4=CC(=O)C=C[C@]4(C)[C@@]3(F)[C@@H](O)C[C@@]21C [Fluticasone Propionate] |  | Insoluble | Water Soluble | 
CC(C)Cc1ccc(C(C)C(=O)O)cc1 (centres unmarked) [Ibuprofen] |  | Insoluble |  | less than 1%
CCC(C)n1ncn(-c2ccc(N3CCN(c4ccc(OCC5COC(Cn6cncn6)(c6ccc(Cl)cc6Cl)O5)cc4)CC3)cc2)c1=O (centres unmarked) [Itraconazole] |  | Insoluble | Water Soluble | 
O=c1c(O)c(-c2ccc(O)cc2)oc2cc(O)cc(O)c12 [Kaempferol] |  | Insoluble | Water Soluble | 
Nc1cccc2c1CN(C1CCC(=O)NC1=O)C2=O (centres unmarked) [Lenalidomide] |  | Insoluble | Water Soluble | 
CN(Cc1cnc2nc(N)nc(N)c2n1)c1ccc(C(=O)N[C@@H](CCC(=O)O)C(=O)O)cc1 [Methotrexate] |  | Insoluble | Water Soluble | 
Cc1nc2n(c(=O)c1CCN1CCC(c3noc4cc(F)ccc34)CC1)CCCC2O (centres unmarked) [Paliperidone] |  | Insoluble | Water Soluble | 
CN1C(C(=O)Nc2ccccn2)=C(O)c2ccccc2S1(=O)=O [Piroxicam (pain), Piroxicam] |  | Insoluble | Water Soluble | 
Nc1cccc2c1C(=O)N(C1CCC(=O)NC1=O)C2=O (centres unmarked) [Pomalidomide] |  | Insoluble | Water Soluble | 
CC[C@H](C)C(=O)O[C@H]1C[C@H](O)C=C2C=C[C@H](C)[C@H](CC[C@@H](O)C[C@@H](O)CC(=O)O)[C@H]21 [Pravastatin Sodium] |  | Insoluble | Water Soluble | 
CCc1nc(N)nc(N)c1-c1ccc(Cl)cc1 [Pyrimethamine] |  | Insoluble | Water Soluble | 
CO[C@H]1C[C@@H]2CC[C@@H](C)[C@@](O)(O2)C(=O)C(=O)N2CCCC[C@H]2C(=O)O[C@H]([C@H](C)C[C@@H]2CC[C@@H](O)[C@H](OC)C2)CC(=O)[C@H](C)/C=C(\C)[C@@H](O)[C@@H](OC)C(=O)[C@H](C)C[C@H](C)/C=C/C=C/C=C/1C [Rapamycin] |  | Insoluble | Water Soluble | 
CO[C@H]1/C=C/O[C@@]2(C)Oc3c(C)c(O)c4c(O)c(c(/C=N/N5CCN(C)CC5)c(O)c4c3C2=O)NC(=O)/C(C)=C\C=C\[C@H](C)[C@H](O)[C@@H](C)[C@@H](O)[C@@H](C)[C@H](OC(C)=O)[C@@H]1C [Rifampin] |  | Insoluble | Water Soluble | 
